Test results as given in US7993681B2, “Methods, compositions and devices for inducing stasis in tissues and organs” (Fred Hutchinson Cancer Research Center, priority 2003, dated 2011).

How the values were obtained:
C. elegans embryos = assay: Viability of nematodes in carbon monoxide based atmospheres; format: in vivo; settings: for Viability to adulthood: 0.25 kPa O2/CO, 24 hrs
Description: To achieve specific atmospheric conditions the following apparatus was used: a glass syringe barrel having a tip with a locking device such as a LUER-LOK with the large opening of the barrel sealed with a custom-machined steel and rubber fitting to make an airtight seal was locked to via locking device to the inlet port of an environmental chamber having an inlet and an outlet port each fitted with a locking devices such as a LUER-LOK fitting. A defined gas was humidified and provided to the environmental chamber by first venting the gas from a compressed tank (Byrne Specialty Gas, Seattle, Wash.) through a gas washing bottle (500 ml Kimex) filled with double distilled water. The gas washing bottle was connected to the environmental chamber past a gas-flow meter. A gas flow meter was used to provide a regulated 70 cc/min flow through the environmental chamber throughout the 24 hr incubation.
To test whether induced, reversible stasis could be achieved in C. elegans nematodes, 2-cell C. elegans embryos, L3 larvae or adult nematodes were collected and exposed to either an environment of effectively 100% CO, an environment of 100% N2, an environment comprising 500 ppm oxygen balanced with carbon monoxide, or to environments comprising 100, 500 or 1000 ppm oxygen balanced with nitrogen at room temperature. Nematodes were visualized using differential interference contrast microscopy (also known as Nomarski optics). Images were collected and analyzed using NIH image and Adobe Photoshop 5.5. Embryos are approximately 50 μm in length.
Environmental chambers and apparatuses. Oxygen deprivation experiments were carried out using a custom atmospheric chamber designed by W. Van Voorhies (Van Voorhies et al., 2000). The chamber is a 30 mL glass syringe (Fisher #14-825-10B) fitted with a custom steel stopper that is lined with two viton o-rings to ensure a tight seal. The stopper is bored through and has a steel lure lock on the exterior face so that a hose carrying compressed gas can be attached. A defined gas mixture is delivered to the chamber at a constant pressure and flow rate from compressed tanks by passing first through a rotometer (Aalborg, flow-tube number 032-41ST) or mass flow controller (Sierra Instruments #810) to monitor flow rate and then through a 500 ml gas washing bottle (Fisher #K28220-5001) containing 250 ml water to hydrate the gas. ¼″ OD nylon (Cole-Parmer #P-06489-06) or FEP (Cole-Parmer #A-06450-05) tubing was used and connections between tubing and the regulators and between the tubing and the rotometers were made with brass John-Guest-type fittings (Byrne Gas). All other connections were made with either microflow quick-connect fittings (Cole-Parmer #A-06363-57, #A-06363-52) or standard lure fittings (Cole-Parmer #A-06359-37, #A-06359-17).
Viability of nematodes in carbon monoxide based atmospheres. 30-60 embryos were harvested from continuously maintained Bristol N2 and hif-2(ia04) strains as described above. Environmental chambers were continuously perfused at room temperature with pure CO (grade CP) or 500 ppm O2/CO at 70 cc/min for 24 hrs. To achieve 2500 ppm O2/CO or 2500 ppm O2/N2, 5000 ppm O2/N2 was mixed at a 1:1 ratio with either pure CO or pure N2 using two mass flow controllers (Sierra Instruments 810) to precisely monitor flow. Each gas was delivered into a 3-way valve (Cole-Parmer #A-30600-23) at 50 cc/min and the resulting mixture was then passed through a gas washing bottle and into an environmental chamber throughout the 24 hour exposure. All gases were supplied by Byrne Gas (Seattle, Wash.). The 500 ppm O2/CO mixture was certified to 2% of the oxygen content and contained 7000 ppm N2 to ensure a consistent O2/CO ratio throughout the use of the tank.
Cell biological analysis. […]

humans [1] = settings: around 1000 ppm, more than around 1-2 minutes; cited from earlier work
human keratinocytes = assay: Preservation of human skin in carbon monoxide, keratinocyte colony formation; format: cell-based
Procedure: Three human foreskins were obtained for this purpose. The foreskin tissue was preserved in keratinocyte growth medium (KGM) containing insulin, EGF (0.1 ng/ml), hydrocortisone ([…]) and bovine pituitary extract (approx. 50 micrograms/ml of protein). Foreskins were rinsed in PBS, and excess fatty tissue was removed. Each foreskin sample was divided into 2 equal pieces. Each piece was placed into a separate container containing a solution of PBS with 24 mg/ml of Dispase II (from Bacillus Polymyxa EC 3.4.24.4:Roche Diagnostics Corp., Indianapolis, Ind.). One container (containing a foreskin piece in PBS with Dispase II) was kept in a humid chamber in a fume hood. The other container (with the other half of the foreskin in PBS with Dispase II) was placed in the same fume hood in an environmental chamber perfused with humidified 100% CO. Both samples were maintained at room temperature for 24 hrs. Methods used to establish defined atmospheric conditions were identical to those used in Example 1.
Following the 24 hr exposure to normoxia or 100% CO, keratinocytes were isolated from the foreskins according to the method described by Boyce et al. (1983; 1985; each of which is incorporated herein by reference in its entirety). Briefly, the epidermis from each foreskin sample was removed to a fresh dish containing PBS. The epidermis was minced and homogenized prior to incubation in 3 ml of 0.05% Trypsin, 1 mM EDTA for 5 minutes, at room temperature, to separate basal cells from the epidermis. After incubation, 6 ml of 400 μg/ml (micrograms per ml) Soybean Trypsin Inhibitor, 1 mg/ml BSA was added and the samples were centrifuged at 900 RPM. The supernatant from each sample was discarded and the sample pellets were resuspended in 10 ml of KGM. Each sample was split into two 10 cm plates each of which contained 5 ml KGM and 100 μl of HEPES pH 7.3 (N-2-hydroxyethylpiperazine-N′-2-ethane sulfonic acid). The plates were incubated in a 37° C. incubator perfused with 95% room air, 5% carbon dioxide for five days.
Cells were inspected visually using an inverted phase contrast microscope. […] Quantitation of the number of viable keratinocytes as judged by colony formation was quantified for two of the three foreskins.

mice [2] = assay: Respirometry of mice exposed to H2S; format: in vivo, mouse
Procedure: (§1) Exposure of Mice to Regulated Atmosphere.
Measurements were over a period of 15 minutes, with the mice in a 0.5 L sealed environmental chamber with flow rates of 500 cc/min. Consumption of oxygen is obtained by subtracting the oxygen concentration when the mouse is present, from the control when the mouse is absent. Likewise, production of carbon dioxide is obtained by subtracting the carbon dioxide concentration when the mouse is present from the control when the mouse is absent. RQ stands for respiratory quotient, and is equal to the ratio of carbon dioxide produced to oxygen […]. […] The change in the respiratory quotient reflects the disparity oxygen consumption and carbon dioxide production by the mice in the presence or absence of the H2S.

mice [3] = settings: 80 ppm, cited from earlier work
rats = settings: cited from earlier work
mice [4] = assay: Core body temperature, heart rate and movement of mice exposed to H2S (telemetry); format: in vivo, mouse
Description: Implantation of telemetry devices.
as §1
Regulation of Ambient Temperature. […] Mice were exposed to regulated atmosphere as described above.

mice [5] = settings: SHIRPA tests before and after exposure
humans [6] = settings: cited from earlier work
[7] = 80 ppm, 15 minutes, 0.5 L chamber, 500 cc/min
[8] = warming phase after 80 ppm, cabinet 10.5° C.

## [C-]#[O+] [CO, Carbon monoxide]
C. elegans embryos; 0.05 kPa O2 balanced with carbon monoxide
  embryogenesis during exposure: arrested embryogenesis
C. elegans embryos; hif-1(ia04) embryos
  Viability to adulthood: 83.9% ± 13.8
C. elegans embryos; wild-type (N2 strain) embryos
  Viability to adulthood: 78.7%
C. elegans embryos; 100% carbon monoxide, 24 hr, room temperature, nematodes
  lethality and suspended animation: not lethal and induced reversible suspended animation
C. elegans embryos; 101 kPa CO
  progression through embryogenesis during exposure: did not progress through embryogenesis
C. elegans embryos; 500 ppm oxygen balanced with carbon monoxide, 24 hr
  suspended animation and survival: entered into suspended animation and survived
Humans [1]
  lethality: can expire
Human keratinocytes; 100% CO, 24 hrs, human skin
  skin cell survival in CO versus room air: 100 fold
Human keratinocytes; Foreskin 1, 100% CO 24 hr
  Total colonies: 542 colonies (many of which
Human keratinocytes; Foreskin 2, 100% CO 24 hr
  Total colonies: 780 colonies (many of which
Human keratinocytes; foreskin 24 hr in 100% CO at room temperature, then five days culture, three foreskins
  growth of keratinocyte populations: significant growth

## S [H2S, Hydrogen sulfide]
Mice [2]; 80 ppm (FIG. 4A)
  decrease in CO2 production: approximately 3 fold
  time to decrease in CO2 production / new baseline: approximately 5 minutes
Mice [2]; [7]
  drop in carbon dioxide production: 3-4 fold
  drop in oxygen consumption: 2-3 fold
Mice [2]; 80 ppm, core temperature 15° C.
  decrease in cellular respiration: 1-20 fold
Mice [2]; H2S present (80 ppm)
  RQ: 0.58
Mice [2]; H2S present (80 ppm), control minus mouse present
  Consumption of oxygen: 1300 ppm
Mice [2]; mouse present, H2S present (80 ppm)
  [CO2] ppm: 750 ppm
Mice [3]; 6 hrs per day, 5 days per week, 90 days
  adverse effects incl. gross and histopathological examination: no observed adverse effect
Mice [3]; exposures lasting up to ten weeks
  tolerability: innocuous
rats; 20 or 50 ppm, 7 hours per day, gestation through post-natal day 21, rats
  perinatal neurotoxicity: longer dendritic branches with reduced aborization of cerebellar Purkinje cells
rats; 80 ppm, 6 hrs per day, 5 days per week, 90 days, rats
  adverse effects incl. gross and histopathological examination: no observed adverse effect
rats; 80 ppm
  perinatal study, neuropathology and behavior of rat pups: no neuropathological effects
rats; moderate levels, immediately after end of exposure, rats
  discriminated avoidance responses: inhibits discriminated avoidance responses
rats; moderate levels, rats
  radial arm maze learning: interferes with the ability of rats to learn a baited radial arm maze task
Mice [4]; 80 ppm, 90 min, incubator lowered to 18° C., first mouse
  core temperature: 28.6 °C
Mice [4]; 80 ppm, 3 hrs, dropped from 600 bpm
  heart rate: 250 bpm
Mice [4]; 80 ppm, 3 hrs, incubator 18° C., second mouse
  core temperature: 18.6 °C
Mice [4]; 80 ppm, 6 hrs, seven mice
  recovery after rewarming in room air: successfully recovered
Mice [4]; 80 ppm, 6 hrs, seven mice, ambient temperature 13° C.
  lowest average core body temperature: 15 °C
Mice [4]; 80 ppm, ambient dropped to less than 10° C. (FIG. 7)
  lowest core body temperature recorded: 10.7 °C
Mice [4]; 80 ppm, cabinet 10° C., non-telemetry mouse
  time to recover activity after removal from gassing chamber: approximately 90 min
Mice [4]; 80 ppm, cabinet 10° C., telemetry mouse, electronics failed at 15.3° C.
  core temperature (estimation from slope of the drop): approximately 12.5 °C
Mice [4]; 80 ppm, cabinet 10.5° C., approximately six hours
  core body temperature: 10.5 °C
Mice [4]; after 90 min at 80 ppm, chamber perfused with room air
  time to return to normal range of core temperature and activity: ≤ 60 min
Mice [4]; maintained for 4 weeks after 6 hr at 80 ppm, 15° C.
  behavior of the animals after exposure: no apparent change in the behavior
Mice [4]; [8]
  core body temperature at which normal movement and respiration were fully apparent: 25 °C
  core body temperature at which weak respiration was observed: 14 °C
Mice [5]
  behavioral differences after gas exposure: no detectable behavioral differences
Humans [6]; atmosphere with 0.1% hydrogen sulfide
  acute effect of a single breath: immediately collapse
Humans [6]
  OSHA limit for humans: 10 ppm
Humans [6]; extreme levels (500 ppm)
  acute effect of exposure: sudden collapse and unconsciousness
